Data on one compound can be found in publication PMC7894038 (Antiviral research, 2020).

The target of the assay is eNP-CTD (Ebola virus nucleoprotein C-terminal domain, residues 641-739) (Zaire ebolavirus, UniProt P18272). Put plainly: biochemical. The class given is binding.

Structures are written as SMILES. Where two headings read alike, the source gives them in different places. A value given as a limit tells only on which side of the number the result lay.

Chain of eNP-CTD (Ebola virus nucleoprotein C-terminal domain, residues 641-739) (P18272 641-739 limits assumed): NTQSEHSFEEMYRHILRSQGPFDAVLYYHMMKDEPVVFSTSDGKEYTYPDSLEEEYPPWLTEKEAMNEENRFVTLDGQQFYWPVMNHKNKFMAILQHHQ

Usually Kd stands for the equilibrium constant for the complex coming apart. Take `CNCC1CCN(Cc2cccnc2)CC1` [CC69846, N-methyl-[1-(pyrid-3-ylmethyl)piperid-4-yl]methylamine]: the “Site 1 ligand efficiency” value is recorded as 1.6 ± 0.2 (0.24), the “Site 3 ligand efficiency” value was 1.9 ± 0.3 (0.24) and the “Site 4 ligand efficiency” value was 4.9 ± 1.8 (0.20). For the same compound, binding (Site 1 Kd ± Std. Error) was put at a Kd of 1600 µM. In addition, the Kd (Site 3 Kd ± Std. Error) was more than 1630 µM. The compound further registered a Kd (Site 4 Kd ± Std. Error) of more than 1630 µM. Besides, for the setting “pH 7”, the “Site 2 Kd ± Std. Error” value was “did not bind” and the “Site 4 Kd ± Std. Error” value is on record as “lower affinity”. Moreover, the Kd (read-out: Site 2 Kd ± Std. Error, pH 7) was more than 7000 µM.
